# System: Growth Hormone Release
# Assay: Peptide effects on growth hormone release, plasma GH by RIA in anesthetized male rats
# Format: in vivo, rat
# Details: for % Potency: by comparison to pooled standards GRF(1-29)-NH2, limits in parenthesis
# Description: In this evaluation, the procedures described by W. A. Murphy et al., Endocrinology 109:491-495 (1980), were employed.
# In growth hormone (GH) experiments, male rats (Charles Rivers) were anesthetized with NEMBUTAL® (6 mg per 100 g body weight) which also served to maintain stimulated plasma GH levels. Exactly 30 minutes after the rats were anesthetized, 0.5 mL of saline or the test peptide in saline was administered as a SC bolus. A 1 mL blood sample was drawn from the jugular vein 15 minutes after the injection of the peptide in saline. GH levels were determined using NIADDKD rat GH RIA components.
compound,measurement,setting,value
"CC[C@H](C)[C@H](NC(=O)[C@H](C)NC(=O)[C@H](CC(=O)O)NC(=O)[C@@H](C)NC(=O)[C@@H](Cc1ccc(O)cc1)NC(C)=O)C(=O)N[C@@H](Cc1ccccc1)C(=O)N[C@H](C(=O)N[C@@H](CC(N)=O)C(=O)N[C@@H](CO)C(=O)N[C@@H](Cc1ccc(O)cc1)C(=O)N[C@@H](CCCNC(=N)N)C(=O)N[C@@H](CCCCN)C(=O)N[C@H](C(=O)N[C@@H](CC(C)C)C(=O)NCC(=O)N[C@@H](CCC(N)=O)C(=O)N[C@@H](CC(C)C)C(=O)N[C@@H](CO)C(=O)N[C@@H](C)C(=O)N[C@@H](CCCNC(=N)N)C(=O)N[C@@H](CCCCN)C(=O)N[C@@H](CC(C)C)C(=O)N[C@@H](CC(C)C)C(=O)N[C@@H](CCC(N)=O)C(=O)N[C@@H](CC(=O)O)C(=O)N[C@H](C(=O)N[C@@H](CCSC)C(=O)N[C@@H](CO)C(=O)N[C@@H](CCCNC(=N)N)C(N)=O)[C@@H](C)CC)C(C)C)[C@@H](C)O [[N-Ac-D-Tyr^1, D-Ala^2]-hpGRF(1-29)-NH2, N-acetyl-D-tyrosine^1,D-alanine^2-human pancreatic growth hormone-releasing (1-29)-amine]",Plasma GH,"dose 0.2 μ/100 g BW SC, 15 min, saline 333 ± 50",680 ± 100 ng/mL
same,Plasma GH,"dose 0.5 μ/100 g BW SC, blood 15 min after injection, saline 333 ± 50",499 ± 50 ng/mL
same,Plasma GH,"dose 0.8 μ/100 g BW SC, 15 min, saline 333 ± 50",2063 ± 251 ng/mL
same,Plasma GH,"dose 3.2 μ/100 g BW SC, 15 min, saline 333 ± 50",3818 ± 412 ng/mL
"Ac-YADAIFTNSYRRVLGQLSARRLLQDIMSR-NH2 [[N-Ac-Tyr, Arg^12, 21]-hpGRF(1-29)-NH2, N-acetyl Arginine^12,21-human Pancreatic Growth Hormone-Releasing Factor (1-29)-amide]",Plasma GH,"dose 1 μ/100 g BW SC, 15 min, saline 27% ± 54",796 ± 88 ng/mL
same,Plasma GH,"dose 2.5 μ/100 g BW SC, 15 min, saline 27% ± 54",1649 ± 167 ng/mL
D-asparagine^8 -human Pancreatic Growth Hormone-Releasing(1-29)-amide [D-Asn^8],Plasma GH,"dose 4 ug/100 g BW SC, 15 min, saline 366 ± 81",1296 ± 118 ng/mL
same,Plasma GH,"dose 10 ug/100 g BW SC, 15 min, saline 366 ± 81",2397 ± 246 ng/mL
D-serine-9-human Pancreatic Growth Hormone-Releasing(1-29)-amine [D-Ser^9],% Potency,,108 (77-151) %
same,Plasma GH,"dose 16 (unit not given), SC, 15 min",1804 ± 312
same,Plasma GH,"dose 40 (unit not given), SC, 15 min",3652 ± 370
"N-acetyl-L-histidine-1,D-alamine-2,L-norleucine-27-human Pancreatic Growth Hormone-Releasing (1-29)-amine [N-AcHis^1, D-Ala^2, Nle^27]",% Potency,,1574 (1112-2226) %
same,Plasma GH,"dose 0.5 (unit not given), SC, 15 min",1146 ± 143
same,Plasma GH,"dose 1.25 (unit not given), SC, 15 min",1907 ± 603
"N-acetyl-L-histidine-1,D-alanine^2 -human Pancreatic Growth Hormone-Releasing(1-29)-amine [[N-Ac-His^1, D-Ala^2]-hpGRF(1-29)-NH2]",Plasma GH,"dose 1.0 μg/100 g BW SC, 15 min, saline 541 ± 78",1974 ± 274 ng/mL
same,Plasma GH,"dose 5.0 μg/100 g BW SC, 15 min, saline 541 ± 78",4989 ± 638 ng/mL

# — patent US5416073A, “Growth hormone-releasing peptides and method of treating animals, therewith” (The Adminstrators of the Tulane Educational Fund, priority 1985, dated 1995)
